Laboratory results published in the supplement of paper PMC10307832.

What was measured:
Assay in all cases: relative viability (nuclei count vs DMSO), 5 days (fraction); higher = more cells survive
VX-702 + Palbociclib = compound: NC(=O)c1ccc(N(C(N)=O)c2c(F)cccc2F)nc1-c1ccc(F)cc1F [VX-702] + CC(=O)c1c(C)c2cnc(Nc3ccc(N4CCNCC4)cn3)nc2n(C2CCCC2)c1=O [Palbociclib] (partner 0.5 µM)
Summary of the method: (§1)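 One day after seeding in 1536-well plates, lung cancer cell lines were dosed by pin tool. Dosing was either single-drug or a fixed anchor-drug dose plus five library-drug doses (not always all listed) in √10 steps. After 5 days, nuclei were stained in one fix-and-stain step and counted on 4× images, and relative viability is the nuclei count of treated wells over that of vehicle wells, given as the median of duplicate plates.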

VX-702 + Tozasertib = compound: NC(=O)c1ccc(N(C(N)=O)c2c(F)cccc2F)nc1-c1ccc(F)cc1F [VX-702] + Cc1cc(Nc2cc(N3CCN(C)CC3)nc(Sc3ccc(NC(=O)C4CC4)cc3)n2)n[nH]1 [Tozasertib] (partner 0.1 µM)
Summary of the method: as §1

VX-702 + Alpelisib = compound: NC(=O)c1ccc(N(C(N)=O)c2c(F)cccc2F)nc1-c1ccc(F)cc1F [VX-702] + Cc1nc(NC(=O)N2CCC[C@H]2C(N)=O)sc1-c1ccnc(C(C)(C)C(F)(F)F)c1 [Alpelisib] (partner 2 µM)
Summary of the method: as §1

VX-702 + Phenformin = compound: NC(=O)c1ccc(N(C(N)=O)c2c(F)cccc2F)nc1-c1ccc(F)cc1F [VX-702] + N=C(N)NC(=N)NCCc1ccccc1 [Phenformin] (partner 250 µM)
Summary of the method: as §1

Cell Line | relative viability (VX-702 + Palbociclib; first compound 0.02 µM) | relative viability (VX-702 + Palbociclib; first compound 0.2 µM) | relative viability (VX-702 + Palbociclib; first compound 0.6325 µM) | relative viability (VX-702 + Palbociclib; first compound 2 µM) | relative viability (VX-702 + Tozasertib; first compound 0.02 µM) | relative viability (VX-702 + Tozasertib; first compound 0.2 µM) | relative viability (VX-702 + Tozasertib; first compound 0.6325 µM) | relative viability (VX-702 + Tozasertib; first compound 2 µM) | relative viability (VX-702 + Alpelisib; first compound 0.02 µM) | relative viability (VX-702 + Alpelisib; first compound 0.2 µM) | relative viability (VX-702 + Alpelisib; first compound 0.6325 µM) | relative viability (VX-702 + Alpelisib; first compound 2 µM) | relative viability (VX-702 + Phenformin; first compound 0.02 µM) | relative viability (VX-702 + Phenformin; first compound 0.2 µM) | relative viability (VX-702 + Phenformin; first compound 0.6325 µM) | relative viability (VX-702 + Phenformin; first compound 2 µM)
EMC-BAC-2 | 0.5 | 0.489 | 0.501 | 0.481 | 0.349 | 0.278 | 0.272 | 0.304 | 0.766 | 0.671 | 0.723 | 0.852 | 0.522 | 0.549 | 0.526 | 0.402
EPLC-272H | 0.312 | 0.343 | 0.316 | 0.311 | 0.345 | 0.235 | 0.418 | 0.289 | 0.982 | 0.752 | 0.965 | 1.01 | 0.303 | 0.302 | 0.381 | 0.26
H3255 | 0.304 | 0.317 | 0.318 | 0.315 | 0.576 | 0.792 | 0.655 | 0.8 | 0.727 | 0.78 | 0.723 | 0.907 | 0.352 | 0.344 | 0.371 | 0.386
HARA | 0.278 | 0.227 | 0.226 | 0.254 | 0.113 | 0.0909 | 0.118 | 0.117 | 0.789 | 0.832 | 0.836 | 0.921 | 0.433 | 0.42 | 0.599 | 0.569
HCC-15 | 0.732 | 0.639 | 0.724 | 0.491 | 0.402 | 0.322 | 0.408 | 0.53 | 0.844 | 0.777 | 0.848 | 0.956 | 0.536 | 0.441 | 0.525 | 0.557
HCC-44 | 1.01 | 1 | 0.955 | 0.98 | 0.765 | 0.893 | 1.05 | 1.3 | 0.861 | 0.866 | 0.588 | 0.8 | 0.191 | 0.286 | 0.191 | 0.225
HCC-78 | 0.493 | 0.486 | 0.513 | 0.487 | 0.42 | 0.456 | 0.325 | 0.465 | 0.303 | 0.33 | 0.287 | 0.32 | 0.63 | 0.823 | 0.689 | 0.676
HCC-366 | 0.409 | 0.412 | 0.389 | 0.333 | 0.156 | 0.095 | 0.0851 | 0.0835 | 0.37 | 0.369 | 0.296 | 0.463 | 0.594 | 0.62 | 0.679 | 0.5
HCC-827 | 0.452 | 0.462 | 0.446 | 0.316 | 0.427 | 0.396 | 0.387 | 0.393 | 0.982 | 1.04 | 0.884 | 0.684 | 0.417 | 0.457 | 0.423 | 0.188
HOP-62 | 0.487 | 0.479 | 0.451 | 0.551 | 0.474 | 0.37 | 0.41 | 0.373 | 1.12 | 1.17 | 1.06 | 1.19 | 0.809 | 0.656 | 0.698 | 0.708
IA-LM |  |  |  |  |  |  |  |  | 0.718 | 0.725 | 0.782 | 0.748 |  |  |  | 
